# Assay results published in patent EP1200395B1, “UREA DERIVATIVES AS INHIBITORS OF CCR-3 RECEPTOR” (KIRIN BEER KABUSHIKI KAISHA, priority 1999, dated 2001).
# Target: T1, CCR-3 (Homo sapiens, UniProt P51677)
# T1 sequence (P51677 1-355): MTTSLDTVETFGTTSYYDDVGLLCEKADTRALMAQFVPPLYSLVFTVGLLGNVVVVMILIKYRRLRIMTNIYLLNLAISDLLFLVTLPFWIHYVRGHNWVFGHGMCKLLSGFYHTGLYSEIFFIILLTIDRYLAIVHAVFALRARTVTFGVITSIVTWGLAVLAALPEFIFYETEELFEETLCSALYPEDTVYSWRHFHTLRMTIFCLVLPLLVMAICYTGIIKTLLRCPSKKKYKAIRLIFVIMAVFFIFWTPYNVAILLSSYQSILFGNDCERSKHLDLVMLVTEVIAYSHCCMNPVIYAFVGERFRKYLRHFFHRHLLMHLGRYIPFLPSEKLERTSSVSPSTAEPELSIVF
# Experiment: Eotaxin-induced chemotaxis of CCR-3 transfectant cells (CCR3/U937)
# Assay type: cell-based
# Parameters: expressed in transfected cells; host or cells: U937
# Settings: eotaxin 1 x 10^-9 M; for Chemotaxis Assay 10 µM (inhibition %) / inhibition at 10 µM: 10 µM test compound; for Chemotaxis Assay 0.1 µg/ml (inhibition %): test compound 0.1 µg/ml, CCR3/U937 transfectants, 37 °C, 1 hour; for inhibition at 10 µM: U-937
# Method: The inhibitory activity of the compounds against eotaxin-induced chemotaxis was determined by measuring the inhibition of migration of CCR-3 transfectant cells (CCR3/U937), using a minor modification of the method described by Ohashi, H. et al., Int Arch Allergy Immunol. […] The chemotaxis assay was performed in a 24-well culture plate. Human eotaxin suspended in assay medium was added to the wells at 1 x 10^-9 M along with test compounds at various concentrations. For a positive control, eotaxin was added to the wells without a test compound, and for a negative control, neither eotaxin nor a test compound was added to the wells. Chemotaxicell (Kurabo Co., Ltd.) having 5 micrometers pore size were inserted into each well and 100 micro liters of CCR-3 transfectant cells suspension were added to the top chamber. The plates were incubated at 37 °C for 1 hour. After incubation, migrated cells in lower wells were diluted and counted by particle size distribution analyzer (CDP-500, Sysmex Co., Ltd.).
smiles,measurement,setting,value
CCCC[N+](CC)(CCCNC(=O)Nc1ccc(Br)cc1)CCc1ccc(Cl)cc1.[I-] (centres unmarked) [Compound 294],Chemotaxis Assay 10 µM (inhibition %),CCR3/U937 cells (Table 3c),100%
CC[N+](CCCNC(=O)Nc1ccccc1)(CCc1ccc(Cl)c(Cl)c1)CCC(C)C.[I-] (centres unmarked) [compound 408],Chemotaxis Assay 0.1 µg/ml (inhibition %),,74%
CCC(CC)C[N+](CC)(CCCNC(=O)Nc1ccc(OC)cc1)CCc1cccc(F)c1.[I-] (centres unmarked) [compound 450],Chemotaxis Assay 0.1 µg/ml (inhibition %),,35%
CC[N+](CCCNC(=O)Nc1ccccc1)(CCc1ccc(Cl)cc1)Cc1ccc(OC)cc1.[I-] (centres unmarked) [compound 344],Chemotaxis Assay 10 µM (inhibition %),CCR3/U937 cells (Table 3c),100%
CC[N+](CCF)(CCCNC(=O)Nc1ccc(OC)cc1)CCc1ccc(Cl)c(Cl)c1.[I-] (centres unmarked) [compound 453],Chemotaxis Assay 0.1 µg/ml (inhibition %),,87%
"O=C(O)CCCN(CCCNC(=O)Nc1ccc(Cl)cc1)C1CCCc2ccccc21 (centres unmarked) [Compound 171, 4-[[3-(4-Chlorophenylureido)propyl](1,2,3,4-tetrahydro-1-naphthyl)amino]butanoic acid]",inhibition at 10 µM,CCR3/U937 cells (Table 3a),100%
O=C(NCCCN(CCc1ccc(Cl)cc1)Cc1cccnc1)Nc1ccccc1 [Compound 23],inhibition at 10 µM,CCR3/U937 cells (Table 3a),82%
Cc1cccc(NC(=O)NCCCN(CCCC(=O)O)C2CCCc3ccccc32)c1 (centres unmarked) [Compound 83],Chemotaxis Assay 10 µM (inhibition %),CCR3/U937 cells (Table 3a),100%
COC(=O)CCCN(CCCNC(=O)Nc1ccc(Cl)c(C(F)(F)F)c1)C1CCCc2ccccc21 (centres unmarked) [Compound 53],Chemotaxis Assay 10 µM (inhibition %),CCR3/U937 cells (Table 3a),93%
CC[N+](CCF)(CCCNC(=O)Nc1ccc(C(F)(F)F)cc1)CCc1cccc(Cl)c1.[I-] (centres unmarked) [compound 391],Chemotaxis Assay 0.1 µg/ml (inhibition %),,47%
CCC(c1ccccc1)N(CCCNC(=O)Nc1ccc(Br)cc1)CCCC(=O)O (centres unmarked) [Compound 271],Chemotaxis Assay 10 µM (inhibition %),CCR3/U937 cells (Table 3a),100%
CCN(CCCCNC(=O)Nc1ccc([N+](=O)[O-])cc1)CCc1ccc(Cl)cc1 [Compound 5],Chemotaxis Assay 10 µM (inhibition %),CCR3/U937 cells (Table 3a),99%
O=C(NCCCN(Cc1ccc(C(=O)O)cc1)C1CCCc2ccccc21)Nc1ccc(Br)cc1 (centres unmarked) [Compound 223],Chemotaxis Assay 10 µM (inhibition %),CCR3/U937 cells (Table 3a),86%
CC[N+](CCCNC(=O)Nc1ccc(Cl)c(Cl)c1)(CCc1ccc(Cl)cc1)Cc1ccccc1.[I-] (centres unmarked) [compound 325],Chemotaxis Assay 10 µM (inhibition %),CCR3/U937 cells (Table 3c),100%
O=C(O)CCCN(CCCNC(=O)Nc1ccc(Br)cc1)Cc1ccco1 [Compound 68],Chemotaxis Assay 10 µM (inhibition %),CCR3/U937 cells (Table 3a),31%
COC(=O)CCCN(CCCNC(=O)Nc1ccc(OC)cc1OC)C1CCCc2ccccc21 (centres unmarked) [Compound 55],Chemotaxis Assay 10 µM (inhibition %),CCR3/U937 cells (Table 3a),38%
CC[N+](CCCNC(=O)Nc1ccccc1)(CCc1ccc(Cl)cc1)Cc1ccc([N+](=O)[O-])cc1.[I-] (centres unmarked) [compound 337],Chemotaxis Assay 10 µM (inhibition %),CCR3/U937 cells (Table 3c),99%
CC(C)(Cc1ccccc1)N(CCCNC(=O)Nc1ccc(Br)cc1)CCCC(=O)O [Compound 207],Chemotaxis Assay 10 µM (inhibition %),CCR3/U937 cells (Table 3a),50%
CC[N+](CCF)(CCCNC(=O)Nc1ccc(C#N)cc1)CCc1c(Cl)cccc1Cl.[I-] (centres unmarked) [compound 405],Chemotaxis Assay 0.1 µg/ml (inhibition %),,57%
CCN(CCCNC(=O)Nc1ccccc1)CCc1ccc(F)cc1 [Compound 230],Chemotaxis Assay 10 µM (inhibition %),CCR3/U937 cells (Table 3a),100%
C=CC[N+](CC)(CCCNC(=O)Nc1ccccc1)CCc1ccc(Cl)cc1.[I-] (centres unmarked) [Compound 301],Chemotaxis Assay 10 µM (inhibition %),CCR3/U937 cells (Table 3c),100%
"C[C@@H](c1ccc(Br)cc1)N(CCCNC(=O)Nc1ccc(Br)cc1)CCCC(=O)O [Compound 293, 4-[[3-(4-Bromophenylureido)propyl][(1S)-1-(4-bromophenyl)ethyl]amino]butanoic acid]",inhibition at 10 µM,CCR3/U937 cells (Table 3a),95%
"CC[N+](CCCNC(=O)Nc1ccccc1)(CCc1ccc(Cl)cc1)Cc1cc(F)ccc1F (centres unmarked) [Compound 351, [3-(Phenylureido)propyl][2-(4-chlorophenyl)ethyl](2,5-difluorobenzyl)ethylammonium iodide]",inhibition at 10 µM,CCR3/U937 cells (Table 3c),100%
COC(=O)CCCN(CCCNC(=O)Nc1ccccc1)C1CCCc2ccccc21 (centres unmarked) [Compound 56],Chemotaxis Assay 10 µM (inhibition %),CCR3/U937 cells (Table 3a),100%
"COC(=O)CCCN(CCCCNC(=O)Nc1ccc(Br)cc1)C1CCCc2ccccc21 (centres unmarked) [Compound 32, Methyl 4-[[4-(4-bromophenylureido)butyl](1,2,3,4-tetrahydro-1-naphthyl)amino]butylate]",Chemotaxis Assay 10 µM (inhibition %),CCR3/U937 cells (Table 3a),99%
"CC[N+](CCCNC(=O)Nc1ccccc1)(CCc1ccc(Cl)cc1)Cc1cccc(F)c1 (centres unmarked) [Compound 352, [3-(Phenylureido)propyl][2-(4-chlorophenyl)ethyl](3-fluorobenzyl)ethylammonium iodide]",inhibition at 10 µM,CCR3/U937 cells (Table 3c),100%
CCC(CC)C[N+](CC)(CCCNC(=O)Nc1ccc(Br)cc1)CCc1ccc(Cl)c(Cl)c1.[I-] (centres unmarked) [compound 380],Chemotaxis Assay 0.1 µg/ml (inhibition %),,46%
O=C(NCCCN(CCc1ccc(Cl)cc1)CC1CCCCC1)Nc1ccccc1 [Compound 240],Chemotaxis Assay 10 µM (inhibition %),CCR3/U937 cells (Table 3a),86%
COC(=O)CCCN(CCCNC(=O)Nc1ccc(Br)cc1)C1Cc2ccccc2C1 [Compound 174],Chemotaxis Assay 10 µM (inhibition %),CCR3/U937 cells (Table 3a),100%
"O=C(O)CCCN(CCCCNC(=O)Nc1ccc(Br)cc1)C1CCCc2ccccc21 (centres unmarked) [Compound 62, 4-[[4-(4-Bromophenylureido)butyl](1,2,3,4-tetrahydro-1-naphthyl)-amino]butanoic acid]",inhibition at 10 µM,CCR3/U937 cells (Table 3a),98%
COC(=O)CCCN(CCCNC(=O)Nc1ccc(Oc2ccccc2)cc1)C1CCCc2ccccc21 (centres unmarked) [Compound 58],Chemotaxis Assay 10 µM (inhibition %),CCR3/U937 cells (Table 3a),100. %
CC[N+](CC)(CCCNC(=O)Nc1ccccc1)Cc1ccccc1.[I-] [Compound 305],Chemotaxis Assay 10 µM (inhibition %),CCR3/U937 cells (Table 3c),100%
CC(c1ccccc1)N(CCCNC(=O)Nc1ccc(Br)cc1)CCCC(=O)O (centres unmarked) [Compound 77],Chemotaxis Assay 10 µM (inhibition %),CCR3/U937 cells (Table 3a),76%
CC[N+](CCCNC(=O)Nc1ccccc1)(CCOCCOC)CCc1ccc(Cl)c(Cl)c1.[I-] (centres unmarked) [compound 415],Chemotaxis Assay 0.1 µg/ml (inhibition %),,99%
CC[N+](CCCNC(=O)Nc1ccc(Br)cc1)(CCc1cccc(Cl)c1)CC1CCC1.[I-] (centres unmarked) [compound 376],Chemotaxis Assay 0.1 µg/ml (inhibition %),,87%
CC[N+](CCCNC(=O)Nc1ccccc1)(CCc1ccc(Cl)cc1)Cc1ccc(C)c(C)c1.[I-] (centres unmarked) [compound 353],Chemotaxis Assay 10 µM (inhibition %),CCR3/U937 cells (Table 3c),100%
CC[N+](CCF)(CCCNC(=O)Nc1ccc(Cl)c(Cl)c1)CCc1cccc(F)c1.[I-] (centres unmarked) [compound 371],Chemotaxis Assay 0.1 µg/ml (inhibition %),,86%
C=C(C)C[N+](CC)(CCCNC(=O)Nc1ccc(Br)cc1)CCc1cccc(Cl)c1.[I-] (centres unmarked) [compound 378],Chemotaxis Assay 0.1 µg/ml (inhibition %),,81%
O=C(O)CCCN(CCCNC(=O)Nc1cccc(Br)c1)C1CCCc2ccccc21 (centres unmarked) [Compound 199],Chemotaxis Assay 10 µM (inhibition %),CCR3/U937 cells (Table 3a),100%
COc1ccc(NC(=O)NCCCN(CCCC(=O)O)C2CCCc3ccccc32)c(OC)c1 (centres unmarked) [Compound 86],Chemotaxis Assay 10 µM (inhibition %),CCR3/U937 cells (Table 3a),37%
C=C(C)C[N+](CC)(CCCNC(=O)Nc1ccccc1)CCc1ccc(Cl)cc1.[I-] (centres unmarked) [compound 422],Chemotaxis Assay 0.1 µg/ml (inhibition %),,42%
CC[N+](CCCNC(=O)Nc1ccc(Br)cc1)(CCCC(=O)OC)C1CCc2ccccc21.[I-] (centres unmarked) [compound 314],Chemotaxis Assay 10 µM (inhibition %),CCR3/U937 cells (Table 3c),100%
N#Cc1ccc(CN(CCCNC(=O)Nc2ccccc2)CCc2ccc(Cl)cc2)cc1 [Compound 291],Chemotaxis Assay 10 µM (inhibition %),CCR3/U937 cells (Table 3a),53%
CC[N+](CCCNC(=O)Nc1ccccc1)(CCOCCOC)CCc1ccc(Cl)cc1.[I-] (centres unmarked) [compound 412],Chemotaxis Assay 0.1 µg/ml (inhibition %),,84%
"O=C(NCCCN(CCCc1nnn[nH]1)C1CCCc2ccccc21)Nc1ccc(Br)cc1 (centres unmarked) [Compound 218, 3-[[3-(4-Bromophenylureido)propyl](1,2,3,4-tetrahydro-1-naphthyl)amino]-1-(1H-tetrazol-5-yl)propane]",inhibition at 10 µM,CCR3/U937 cells (Table 3a),99%
CC(c1cccc2ccccc12)N(CCCNC(=O)Nc1ccc(Br)cc1)CCCC(=O)O (centres unmarked) [Compound 268],Chemotaxis Assay 10 µM (inhibition %),CCR3/U937 cells (Table 3a),100%
O=C(O)CCCN(CCCNC(=O)Nc1ccccc1)CCc1ccc(Cl)cc1 [Compound 80],Chemotaxis Assay 10 µM (inhibition %),CCR3/U937 cells (Table 3a),65%
CC[N+](CCF)(CCCNC(=O)Nc1ccc(Br)cc1)CCc1ccc(Cl)c(Cl)c1.[I-] (centres unmarked) [compound 384],Chemotaxis Assay 0.1 µg/ml (inhibition %),,76%
O=C(O)CCCCN(CCCNC(=O)Nc1ccc(Br)cc1)C1CCCc2ccccc21 (centres unmarked) [Compound 214],Chemotaxis Assay 10 µM (inhibition %),CCR3/U937 cells (Table 3a),99%
CCN(CCCCNC(=O)Nc1ccccc1)CCc1ccc(Cl)cc1 [Compound 7],Chemotaxis Assay 10 µM (inhibition %),CCR3/U937 cells (Table 3a),99%
